No end group written: not given here.
Tests used:
anti-CGRP antibody JH84 = experiment: Fluorescent competition assay with FL-CGRP tracer on immobilized antibody; assay type: binding; settings: JH84 bound to 96-well plate, 100 pM FL-CGRP as tracer
Experimental: FIG. 11 is a graph illustrating that FL-CGRP can be used for a competition assay to determine CGRP concentrations. Affinity-purified JH84 antibody (100 ng/well) was linked to wells in a 96-well plate, and incubated with 100 pM FL-CGRP and increasing concentrations of unlabeled CGRP. Unbound peptide was washed from well, and fluorescence detected in a Perkin Elmer plate reader.
FL-CGRP was then used to develop a fluorescent competition assay. Affinity-purified anti-CGRP antibody JH84 was bound to the wells of a 96-well plate and […] FL-CGRP was incubated as tracer with either unlabeled CGRP, the homologous neuropeptide adrenomedullin (AM), or the CGRP antagonist CGRP(8-37). […] Thus, the antagonist could not totally compete with FL-CGRP for binding to the antibodies.

CNS1 glioma cells [1] = experiment: CNS1 glioma tumor cell proliferation assay (CyQuant Direct Proliferation Assay); assay type: cell-based, rat; settings: for stimulation of glioma growth over control: hypoxic conditions
Experimental: FIGS. 3A-B are graphs illustrating that CGRP is a potent stimulator of CNS1 glioma cell growth. CNS1 cells were seeded in 96-well plates, and grown for the indicated time in either normoxic (3A) or hypoxic […] conditions. Media was replaced every 24 hrs with fresh peptide-containing media. On each day, cell number was determined using the CyQuant Direct Proliferation Assay (Invitrogen).
The rat glioma cell line CNS1 was used in a tumor cell proliferation assay. Both AM and CGRP were tested for their ability to stimulate glioma growth. […] More striking was the effect under hypoxic conditions, where CGRP stimulated glioma growth 72-fold over control after 4 days in culture and 10-fold after 5 days in culture (FIG. 3B).

[2] = tested on: MDA-MB-231BR breast cancer cells; experiment: MDA-MB-231BR breast cancer cell growth assay (CyQuant Direct Proliferation Assay); assay type: cell-based, human; settings: normoxic conditions, after 4 days in culture
Experimental: FIGS. 4A-B are graphs illustrating that CGRP is a potent stimulator of MDA-MB231BR breast cancer cell growth. MDA-MB231BR cells were seeded in 96-well plates, and grown for the indicated time in either normoxic (4A) or hypoxic (4B) conditions. Media was replaced every 24 hrs with fresh peptide-containing media. On each day, cell number was determined using the CyQuant Direct Proliferation Assay (Invitrogen).
A similar role for CGRP in the stimulation of breast cancer cell growth was observed using the MDA-MB-231BR breast cancer cell line. […] 81:39-48 (2007); Oxmann et al., “Endoglin Expression in Metastatic Breast Cancer Cells Enhances Their Invasive Phenotype,” Oncogene 27:3567-3575 (2008), each of which is herbey incorporated by reference in its entirety). In this assay, CGRP induced the MDA-MB-231BR breast cancer cells 6-fold over control after 4 days in culture under normoxic conditions (FIGS. 4A-B).

FL-CGRP = biological target: T1, FL-CGRP (Rattus norvegicus, UniProt P01256); experiment: Immunoprecipitation of FL-CGRP by anti-CGRP antibodies; assay type: binding; settings: saturating unlabeled CGRP
T1 sequence (P01256 83-119 limits assumed): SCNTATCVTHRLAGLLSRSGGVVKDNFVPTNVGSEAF
Source text: FIGS. 10A-B illustrate the immunoprecipitation of FL-CGRP using anti-CGRP antibodies JH84 and MU33. FIG. 10B schematically illustrates the binding sites of these antibodies.
To be useful for development of non-radioactive competition assays, which will be useful for quantifying CGRP in tissues and cells, the FL-label at lysine^24 cannot inhibit anti-CGRP antibody binding. […] The binding sites for JH84 and MU33 on CGRP are illustrated schematically in FIG. 10B.

[3] = tested on: CGRP receptors (CLR-cherry and RAMP1); experiment: FL-CGRP binding to COS1 cells transfected with CLR-cherry and RAMP1 (fluorescence microscopy)
Experimental: FIG. 12 is a panel of microscopy images illustrating that FL-CGRP specifically binds to cells expressing CLR and RAMP1. COS1 cells were transfected with CLR-cherry and RAMP1. 30 nM FL-CGRP was incubated with transfected cells for 30 minutes, and cells were washed 2× with PBS and visualized by phase-contrast microscopy (left panel), and fluorescent microscopy to identify cells expressing the CLR-cherry fusion protein (center panel) and cells that bound FL-CGRP (right panel).
COS1 cells were transfected with a fusion protein containing CLR-fused at its carboxyl terminus to the fluorescent protein cherry. CLR-cherry and RAMP1 were co-transfected into COS1 cells, and 48 hours post-transfection cells were incubated with FL-CGRP, and imaged using phase contrast microscopy (FIG. 12, left panel) as well as fluorescence microscopy for cherry (580 nm) (FIG. 12, center panel) and FL-CGRP (488 nm) (FIG. 12, right panel).

[4] = tested on: rodent receptors over human receptors; settings: cited from earlier work
CGRP receptor [5] = biological target: T2, CGRP receptor (Mus musculus, UniProt O35427); experiment: CGRP receptor signaling (cAMP) in NIH3T3 cells expressing L2/EGFP; assay type: cell-based; settings: L2/EGFP expressed in NIH3T3 cells, which endogenously express CGRP receptors
T2 construct: NIH3T3 cells, which endogenously express CGRP receptors; endogenous in cells; host or cells: NIH3T3
Source text: (§1) FIG. 7A is a schematic illustration showing that the second intracellular loop of CLR was cloned as a fusion protein with enhanced green fluorescent protein (EGFP). […] The immunoprecipitate was separated by SDS-PAGE and probed with an antibody directed against RCP. RCP co-immunoprecipitated with the L2/EGFP fusion protein (lanes 5, 6) indicating an interaction between RCP and the second intracellular loop of CLR.
(§2) A fusion protein was constructed containing the second intracellular loop (“L2” or elsewhere designated “cpd2”) of CLR and the enhanced green fluorescent protein (L2/EGFP) (FIG. 7A). RCP co-immunoprecipitated with the L2/EGFP fusion protein, indicating a direct interaction between the two proteins (FIG. 7B). […] This confirmed the belief that over-expression of L2/EGFP pulls most of the available RCP away from the CGRP receptor complex, and that the CLR/RAMP1 complex is unable to signal. Thus, the site of interaction between the second intracellular loop of CLR and RCP represents a novel control site for signaling at CLR, and represents a candidate for development of anti-proliferative drugs to combat tumor growth.

RCP = biological target: T3, RCP (Mus musculus, UniProt O35427); experiment: Co-immunoprecipitation of RCP with L2/EGFP in NIH3T3 cells; assay type: binding; settings: L2/EGFP transfected into NIH3T3 cells, GFP immunoprecipitation, probed with anti-RCP
T3 construct: endogenous in cells; host or cells: NIH3T3
Source text: as §1, §2

[6] = tested on: breast cancer lines (human MDA-MB-231 and MDA-MB-231 BR, mouse 4T1 and TG1); experiment: Growth of breast cancer lines constitutively expressing L2/EGFP (FACS-purified); assay type: cell-based; settings: constitutive promoter
Source text: To determine if the dominant-negative L2/EGFP fusion protein could inhibit CLR function in breast cancer cells, four breast cancer lines (human MDA-MB-231 and MDA-MB-231 BR lines and mouse 4T1 and TG1 lines) were transfected with L2/EGFP or GFP alone. MDA-MB231 and MDA-MB-231BR cells that constitutively express GFP were generated as previously described (Evans et al., “CGRP-RCP, a Novel Protein Required for Signal Transduction at Calcitonin Gene-Related Peptide and Adrenomedullin Receptors,” J Biol Chem 275(40):31438-43 (2000); Prado et al., “The Role of the CGRP-Receptor Component Protein (RCP) in Adrenomedullin Receptor Signal Transduction,” Peptides 22(11):1773-81 (2001); and Rosenblatt et al., “Endoproteolysis at Tetrabasic Amino Acid Sites in Procalcitonin Gene-Related Peptide by Pituitary Cell Lines” Peptides 18(4):567-76 (1997), which are hereby incorporated by reference in their entirety). However, when a constitutive promoter was used to express L2/EGFP in these tumor cells, pure fluorescent colonies could not be isolated because, it is believed, the constitutive expression of L2/EGFP was too effective at inhibiting tumor growth.

CNS1 glioma cells [7] = experiment: Growth of CNS1 glioma cells constitutively expressing L2/EGFP (FACS-purified); assay type: cell-based, rat; settings: constitutive expression
Source text: To examine the role of CLR in glioma proliferation, inhibition of CLR via expression of L2/EGFP was attempted. Although CNS1 cells that constitutively express GFP were generated using published techniques (Evans et al., “CGRP-RCP, A Novel Protein Required for Signal Transduction At Calcitonin Gene-Related Peptide and Adrenomedullin Receptors,” J Biol Chem 275(40):31438-43 (2000); Prado et al., “The Role of the CGRP-Receptor Component Protein (RCP) in Adrenomedullin Receptor Signal Transduction,” Peptides 22(11):1773-81 (2001); Rosenblatt et al., “Endoproteolysis At Tetrabasic Amino Acid Sites in Procalcitonin Gene-Related Peptide by Pituitary Cell Lines,” Peptides 18(4):567-76 (1997), which are hereby incorporated by reference in their entirety), upon transfection of the constitutively expressed L2/EGFP construct, pure fluorescent colonies could not be isolated.

CGRP receptor [8] = settings: oocyte-CFTR assay, Luebke et al. 1996; cited from earlier work

T3 sequence (O35427 whole entry): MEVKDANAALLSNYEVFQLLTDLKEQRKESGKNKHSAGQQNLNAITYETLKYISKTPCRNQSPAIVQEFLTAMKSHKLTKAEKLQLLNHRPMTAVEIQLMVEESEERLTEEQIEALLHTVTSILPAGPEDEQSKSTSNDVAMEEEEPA
T2 sequence (O35427 whole entry): as above

## AM: the homologous neuropeptide adrenomedullin
anti-CGRP antibody JH84
  competition with FL-CGRP for binding to immobilized antibody: did not compete

## CGRP: 37 amino acid neuropeptide derived from calcitonin-related polypeptide alpha; agonist of the CGRP receptor
CNS1 glioma cells [1]; after 4 days in culture
  stimulation of glioma growth over control: 72 fold
CNS1 glioma cells [1]; after 5 days in culture
  stimulation of glioma growth over control: 10 fold
CNS1 glioma cells [1]; normoxic conditions, after 5 days in culture
  increase of CNS1 cell growth over control: 11 fold
[2]
  induction of MDA-MB-231BR breast cancer cells over control: 6 fold
FL-CGRP
  effect on immunoprecipitation of FL-CGRP by JH84 and MU33: blocked
anti-CGRP antibody JH84
  competition with FL-CGRP for binding to immobilized antibody: effectively competed

## FL-CGRP: rat CGRP with a single Alexa488 dye molecule attached to the lysine24 residue
[3]
  binding to CGRP receptors: high-affinity
[3]; COS1 cells co-transfected with CLR-cherry and RAMP1, 48 hours post-transfection, 30 nM FL-CGRP
  FL-CGRP binding to cells: only observed to bind to cells that were expressing CLR-cherry
[3]; untransfected cells
  FL-CGRP binding to cells: No FL-CGRP binding was detected

## NCCCC[C@H](NC(=O)[C@@H](Cc1cc(Br)c(O)c(Br)c1)NC(=O)N1CCC(N2Cc3ccccc3NC2=O)CC1)C(=O)N1CCN(c2ccncc2)CC1 [BIB4096, N-((1R)-2-(((1S)-5-amino-1-((4-(pyridin-4-yl)piperazin-1-yl)carbonyl)pentyl)amino)-1-(3,5-dibromo-4-hydroxybenzyl)-2-oxoethyl)-4-(2-oxo-1,4-dihydroquinazolin-3(2H)-yl)piperidine-1-carboxamide]
[4]
  lower affinity for rodent receptors over human receptors: 100-1000 ×

## CGRP8-37: peptide CGRP antagonist consisting of residues 8-37 of SEQ ID NO: 2
anti-CGRP antibody JH84
  competition with FL-CGRP for binding to immobilized antibody: partially competed

## L2/EGFP: fusion protein of the second intracellular loop of CLR and enhanced green fluorescent protein; dominant-negative inhibitor of CLR signaling (LIVVAVFAEKQHLMWYYFLGWGFPLIPACIH; also: fusion protein with EGFP)
CGRP receptor [5]
  signaling at the CGRP receptor as measured by cAMP: inhibited signaling at the CGRP receptor
RCP
  co-immunoprecipitation with RCP: co-immunoprecipitated
[6]
  growth of pure populations of cells expressing the dominant-negative inhibitor: would not grow
CNS1 glioma cells [7]
  growth of pure populations of cells expressing the dominant-negative inhibitor: would not grow

## SEQ ID NO:9: antisense DNA oligonucleotide TGCTCACTGTGTAAGCCTTAAATCCATCAAG (DNA, backbone not given here)
CGRP receptor [8]
  CGRP receptor function: inhibit CGRP receptor function

From patent US8394767B2, “Methods of treating cancer using the calcitonin-gene related peptide (“CGRP”) receptor antagonist CGRP8-37” (University of Rochester, priority 2008, dated 2013)
